The values that follow come from US7115545B1, “Tricyclic benzoylpyrazole derivatives used as a herbicide” (BASF Aktiengesellschaft, priority 1999, dated 2006).

For one data set, the system named is Setaria viridis. As to the kind of experiment: greenhouse post-emergence herbicidal test. Type of data set: in vivo. The following applies: post-emergence method, application rates of 0.5 or 0.25 kg/ha, Setaria viridis (green foxtail). An excerpt:
(§1) The seeds of the test plants were sown separately for each species. For post-emergence treatment, the test plants were first grown to a plant height of from 3 to 15 cm, depending on the plant habit, and only then treated with the active compounds which had been suspended or emulsified in water. For this purpose, the test plants were either sown directly and grown in the same containers, or they were first grown separately as seedlings and transplanted into the test containers a few days prior to the treatment. The application rate for the post-emergence treatment was 0.5 or 0.25 kg of a.s./ha. Depending on the species, the plants were kept at 10–25° C. or 20–35° C. The test period extended over 2 to 4 weeks. During this time, the plants were tended, and their response to the individual treatments was evaluated. Evaluation was carried out using a scale from 0 to 100. 100 means no emergence of the plants, or complete destruction of at least the above-ground parts, and 0 means no damage, or normal course of growth. The plants used in the greenhouse trials were of the following species: [table]

The subject of the next data set is Echinochloa crusgalli. Briefly: greenhouse post-emergence herbicidal test. Type of data set: in vivo. The following applies: post-emergence method, application rates of 0.5 or 0.25 kg/ha, Echinochloa crusgalli (barnyardgrass).
Description: as §1

The subject of the next data set is Chenopodium album. As to the kind of experiment: greenhouse post-emergence herbicidal test. The class given is in vivo. To be noted: post-emergence method, application rates of 0.5 or 0.25 kg/ha, Chenopodium album (lambsquarters).
Description: as §1

The test system of a further data set is Veronica ssp. As to the kind of experiment: greenhouse post-emergence herbicidal test. The class given is in vivo. To be noted: post-emergence method, application rates of 0.5 or 0.25 kg/ha.
Description: as §1

The subject of a further data set is Solanum nigrum. Briefly: greenhouse post-emergence herbicidal test. Type of data set: in vivo. To be noted: post-emergence method, application rates of 0.5 or 0.25 kg/ha, Solanum nigrum (black nightshade).
Description: as §1

Usually melting point stands for the temperature of the solid-liquid transition.

Turning to `Cn1ncc(C(=O)c2ccc(S(C)(=O)=O)c3c2CC2CON=C32)c1OC(=O)c1ccccc1` (stereo not drawn) [compound 2.2, (5-Phenylcarbonyloxy-1-methyl-1H-pyrazol-4-yl)-(8-methyl-sulfonyl-3a,4-dihydro-3H-indeno[1,2-c]isoxazol-5-yl)methanone], the melting point lay in the range of 86 to 93 °C. Moreover, the herbicidal activity result in the data set with Setaria viridis is “very good activity”. Moreover, in the data set with Echinochloa crusgalli, the herbicidal activity entry is recorded as “very good activity”. The herbicidal activity entry with Chenopodium album is reported as “very good activity”. Further, the herbicidal activity entry in the data set with Veronica ssp. is reported as “very good activity”. Moreover, the herbicidal activity entry with Solanum nigrum is “very good activity”.
